Measured values reported in US20140120577A1, “Metalloporphyrin Inducible Promoter” (CHR HANSEN A/S, priority 2011, published 2014).
Like-named read-outs stand apart in the source and are kept apart here.

How the values were obtained:
[1] = test system: promoter of the ygƒCBA operon (Pheme); test: lacZ reporter (beta-galactosidase, Miller method) induction from pTCV Pheme-ygfC-lacZ plasmid in L. lactis MG1363; format: cell-based, Lactococcus lactis; details: for fold induction of beta-galactosidase: M17-glucose (1%)
Description: The pTCV-lac plasmid was used to transform the L. lactis strain MG1363. The transformants were selected on M17 plus glucose (0.5%) solid medium containing erythromycin 3 μg/ml. Colonies were purified and cells stored at −80° C.
Hemin solution is prepared at 20 mM in 50 mM NaOH, and aliquoted for storage at −20° C.; one tube is used for each assay and is then discarded.
PPIX-Ga solution is prepared at 10 mM in dimethylsulfoxide, and prepared in aliquots for storage at −20° C.; one tube is used for each assay and is then discarded.
The L. lactis cells carrying the plasmid are precultured overnight at 30° C. under non-aeration conditions in M17-glucose (0.5%) medium or BHI-Tris (note that BHI includes 0.2% glucose). The media are supplemented with 3 μg/ml erythromycin to maintain the plasmid.
The following day, the precultures are diluted 100-fold in new M17-glucose (1%) medium or BHI-Tris medium (0.5% final glucose concentration), and containing 3 μg/ml erythromycin. The cultures are grown at 30° C. either under non-aeration conditions (nonagitated cultures in full bottles), or under aeration conditions (cultures in conical flasks with baffles, one tenth full; agitation at 170 rpm in the presence of air). The growth is monitored by measuring the OD600.
The inducer is added either simultaneously with the bacteria, or during growth when the bacteria exit the lag phase (OD600=˜0.1 in M17-glucose [1%] medium, OD600=˜0.2 to 0.3 in BHI-Tris-glucose medium).
Cells are recovered from the cultures at OD600=1, and beta-galactosidase activity of the bacterial extracts is quantified by the Miller method (MILLER, Experiments in molecular genetics. Cold Spring Harbor Laboratory Press, Cold Spring Harbor, N.Y., 1972). In the presence of o-nitrophenyl-β-D-galactoside (ONPG), beta-galactosidase produces yellow-colored O-nitrophenol which can be assayed by measuring the optical density at 420 nm (A420); Beta-galactosidase activity of each sample is measured in Miller units by the following formula: 1000×A420/T(min)×V(ml)×A600. This formula measures activity in a cell sample, such that the value is standardized to the same cell biomass (given as the A600 value).

[2] = test system: promoter of the ygƒCBA operon (Pheme); test: lacZ reporter (beta-galactosidase) induction in Streptococcus agalactiae NEM316; format: cell-based; details: for amount of inducer resulting in optimal induction: 1 or 10 μM tested; for induction (in words): BHI-Tris-glucose, non-aerated and aerated cultures; for induction of the promoter (in words): summary statement; for induction over background without hemin: M17-glucose, added at OD600 ~0.3, 1 hour
Description: The pTCV-lac plasmid was used to transform the Streptococcus agalactiae strain NEM316. The transformants were selected on solid M17-glucose (0.5%) medium containing erythromycin 3 μg/ml.
Hemin and PPIX-Ga solutions are prepared as described in Example 2 above.
The Streptococcus agalactiae cells carrying the plasmid are precultured overnight at 37° C. in M17-glucose (0.2%) and 3 μg/ml erythromycin, or in BHI-Tris medium supplemented with 3 μg/ml erythromycin.
The following day, the precultures are diluted 100-fold in new M17-glucose (1%) medium supplemented with 3 μg/ml erythromycin, or BHI-Tris-glucose (0.5% final concentration), and 3 μg/ml erythromycin. The cultures are grown at 37° C. either under non-aeration conditions or under aeration conditions and growth is monitored by measuring the OD600 as described above for Lactococcus lactis.
The inducer is added during growth when bacteria exit the lag phase (OD600=˜0.25 to 0.3).
Cells are recovered from the cultures at OD600=1, and bacterial beta-galactosidase activity is quantified as described in Example 2 above.

[3] = test system: PhemeygƒC inducible system; test: PHEME-ygƒC-lacZ reporter induction in Lactobacillus casei (BETA-GLO test); format: cell-based; details: 10 μM hemin; MRS; static or aerated; 1 hour; endogenous background subtracted
Description: The pTCV-PhemeygƒC-lacZ plasmid described in Example 1 was used to transform a Lactobacillus casei laboratory strain. Transformants were selected on solid MRS medium containing erythromycin 3 μg/ml.
Hemin was prepared as described in Example 2 above.
The Lactobacillus casei cells carrying the pTCV-PhemeygƒC-lacZ plasmid were precultured overnight at 37° C. in MRS containing 3 μg/ml erythromycin. […] This was used as a control for background due to endogenous beta-galactosidase activity present in this species.
The following day, the precultures were diluted 20-fold in fresh MRS medium supplemented with 3 μg/ml erythromycin. The cultures were grown at 37° C. under static and aeration conditions and growth was monitored by measuring the OD600 as described above for Lactococcus lactis. The hemin inducer (10 μM final concentration) was added during growth once bacteria were in exponential phase (OD600=˜0.4).
Cells in mid exponential phase (OD600=˜0.4) were recovered from the cultures after 1 hour in the presence of the hemin inducer and the volumes were adjusted to a final fixed OD600 for the assay. In this experiment, bacterial beta-galactosidase activity is quantified using the commercially available BETA-GLO test (Promega), following manufacturer instructions.

ygƒCBA operon = details: 100 μM heme, cited from earlier work
[4] = BHI-Tris-glucose medium, non-aeration or aeration

| SMILES | fold induction of beta-galactosidase ([1]; non-aeration (static), 10 or 20 μM added during growth (OD600 ~0.1)) [fold] | fold induction of beta-galactosidase ([1]; non-aeration (static), 10 or 20 μM added simultaneously with the bacteria) [fold] | induction of the promoter (in words) ([1]; aeration and non-aeration conditions) | amount of inducer resulting in optimal induction [2, 4] [µM] | induction (in words) [2] | induction of the promoter (in words) [2] | fold induction of beta-galactosidase ([1]; aeration, inducer added during growth (OD600 ~0.1), cells recovered at OD600=1) [fold] | fold induction of beta-galactosidase ([1]; aeration, inducer added simultaneously with the bacteria, cells recovered at OD600=1) [fold] | increase of beta-galactosidase expression ([1]; depending on the heme concentration and the culture conditions) | amount of inducer resulting in optimal induction ([2]; M17-glucose medium, non-aeration and aeration) [µM] | induction over background without hemin ([2]; aeration conditions) | induction over background without hemin ([2]; non-aeration conditions) | induction of beta-galactosidase (in words) [3] | induction of the ygƒCBA operon (ygƒCBA operon; aeration conditions) | induction of the ygƒCBA operon (ygƒCBA operon; non-aeration conditions) |
| --- | --- | --- | --- | --- | --- | --- | --- | --- | --- | --- | --- | --- | --- | --- | --- |
| C=CC1=C(C)C2=[N+]3C1=Cc1c(C)c(C=C)c4[n]1[Ga-]31[n]3c(c(C)c(CCC(=O)O)c3=CC3=[N+]1C(=C4)C(C)=C3CCC(=O)O)=C2 (stereo not drawn) [Ga-PPIX, gallium-protoporphyrin IX] | 120 | 90 | efficient inducer | 10 | efficient | efficient inducers |  |  |  |  |  |  |  |  |  |
| C=CC1=C(C)c2cc3[n-]c(cc4[n-]c(cc5nc(cc1n2)C(C)=C5C=C)c(C)c4CCC(=O)O)c(CCC(=O)O)c3C.[Cl-].[Fe+3] [hemin] |  |  |  | 1 | efficient | efficient inducers | 80 | 70 | up to 100 fold | 1 | more than 150 fold | less than 50 fold | strong induction | up to 50 fold | up to 80 fold |
